Experimental data as given in US8927560B2, “4-Aza-2, 3-didehydropodophyllotoxin compounds and process for the preparation thereof” (Council of Scientific & Industrial Research, priority 2010, dated 2015).

Assays:
Colo 205 = experiment: SRB in vitro cytotoxicity assay, Colo 205 colon cancer cells; type: cell-based; conditions: Homo sapiens, 48 h drug exposure, read-out: In vitro anticancer activity GI50, Colon Colo 205
From the text: (§1) Compounds 4a-4z and 4aa-4ae have been evaluated for their in vitro cytotoxicity in selected human cancer cell lines i.e., colon (Colo205), lung (Hop-62, A549), cervix (SiHa), prostate (PC3), oral (KB, DWD, Gurav), Ovarian (A-2780) and breast (MCF7, Zr-75-1) origin by employing the sulforhodamine B (SRB) assay method (Skehn, P.; Storeng, R.; Scudiero, A.; Monks, J.; MeMohan, D.; Vistica, D.; Jonathan, T. W.; Bokesch, H.; Kenney, S.; Boyd M. R. J. Natl. Cancer Inst. 1990, 82, 1107).
(§2) The synthesized compounds have been evaluated for their in vitro cytotoxicity in human cancer cell lines. A protocol of 48 h continuous drug exposure has been used and a sulforhodamine B (SRB) protein assay has been used to estimate cell viability or growth. The cell lines were grown in DMEM medium containing 10% fetal bovine serum and 2 mM L-glutamine and were inoculated into 96 well microtiter plates in […] at plating densities depending on the doubling time of individual cell lines. The microliter plates were incubated at 37_C, 5% CO2, 95% air, and 100% relative humidity for 24 h prior to addition of experimental drugs. Aliquots of […] of the drug dilutions were added to the appropriate microliter wells already containing […] of cells, suiting in the required final drug concentrations. For each compound four concentrations (0.1, 1, 10 and 100 uM) were evaluated and each was done in triplicate wells. Plates were incubated further for 48 h and assay was terminated by the addition of […] of cold trichloro acetic acid (TCA) (final concentration, 10% TCA) and incubated for 60 min at 4_C. The plates were washed five times with tap water and airdried. Sulforhodamine B (SRB) solution ([…]) at 0.4% (w/v) in 1% acetic acid was added to each of the cells, and plates were incubated for 20 min at room temperature. The residual dye was removed by washing five times with 1% acetic acid. The plates were airdried. Bound stain was subsequently eluted with 10 mM trizma base, and the absorbance was read on an ELISA plate reader at a wavelength of 540 nm with 690 nm reference wavelengths. Percent growth was calculated on a plate by plate basis for test wells relative to control wells. The above determinations were repeated three times. Percentage growth was expressed as the (ratio of average absorbance of the test well to the average absorbance of the control wells)*100. Growth inhibition of 50% (GI50) was calculated from [(Ti−Tz)/(C−Tz)]*100 ¼ 50, which is the drug concentration resulting in a 50% reduction in the net protein increase (as measured by SRB staining) in control cells during the drug incubation. Where, Tz ¼ Optical density at time zero, OD of control ¼ C, and OD of test growth in the presence of drug ¼ Ti.

DWD = experiment: SRB in vitro cytotoxicity assay, DWD oral cancer cells; type: cell-based; conditions: Homo sapiens, 48 h drug exposure, read-out: In vitro anticancer activity GI50, Oral DWD
From the text: as §1, §2

Gurav = experiment: SRB in vitro cytotoxicity assay, Gurav oral cancer cells; type: cell-based; conditions: Homo sapiens, 48 h drug exposure, read-out: In vitro anticancer activity GI50, Oral Gurav
From the text: as §1, §2

MCF7 = experiment: SRB in vitro cytotoxicity assay, MCF7 breast cancer cells; type: cell-based; conditions: Homo sapiens, 48 h drug exposure, read-out: In vitro anticancer activity GI50, Breast MCF7
From the text: as §1, §2

Hop62 = experiment: SRB in vitro cytotoxicity assay, Hop62 lung cancer cells; type: cell-based; conditions: Homo sapiens, HOP-62, 48 h drug exposure, read-out: In vitro anticancer activity GI50, Lung Hop62
From the text: as §1, §2

A-549 = experiment: SRB in vitro cytotoxicity assay, A-549 lung cancer cells; type: cell-based; conditions: Homo sapiens, A549, 48 h drug exposure, read-out: In vitro anticancer activity GI50, Lung A-549
From the text: as §1, §2

KB = experiment: SRB in vitro cytotoxicity assay, KB oral cancer cells; type: cell-based; conditions: Homo sapiens, 48 h drug exposure, read-out: In vitro anticancer activity GI50, Oral KB
From the text: as §1, §2

PC3 = experiment: SRB in vitro cytotoxicity assay, PC3 prostate cancer cells; type: cell-based; conditions: Homo sapiens, PC-3, 48 h drug exposure, read-out: In vitro anticancer activity GI50, Prostate PC3
From the text: as §1, §2

Zr-75-1 = experiment: SRB in vitro cytotoxicity assay, Zr-75-1 breast cancer cells; type: cell-based; conditions: Homo sapiens, 48 h drug exposure, read-out: In vitro anticancer activity GI50, Breast Zr-75-1
From the text: as §1, §2

SiHa = experiment: SRB in vitro cytotoxicity assay, SiHa cervix cancer cells; type: cell-based; conditions: Homo sapiens, 48 h drug exposure, read-out: In vitro anticancer activity GI50, Cervix SiHa
From the text: as §1, §2

A-2780 = experiment: SRB in vitro cytotoxicity assay, A-2780 ovarian cancer cells; type: cell-based; conditions: Homo sapiens, A2780, 48 h drug exposure, read-out: In vitro anticancer activity GI50, Ovarian A-2780
From the text: as §1, §2

SMILES | GI50 (Colo 205) | GI50 (DWD) | GI50 (Gurav) | GI50 (MCF7) | GI50 (Hop62) | GI50 (A-549) | GI50 (KB) | melting point | GI50 (PC3) | GI50 (Zr-75-1) | GI50 (SiHa) | GI50 (A-2780)
COc1nc2c(c(OC)n1)C(c1cc(OC)c(OC)c(OC)c1)C1=C(COC1=O)N2 (centres unmarked) [Compound 4a, 2,4-dimethoxy-5-(3,4,5-trimethoxyphenyl)-5,6,8,9-tetrahydrofuro[3′,4′:5,6]pyrido[2,3-d]pyrimidin-6-one] | 160 nM | 2400 nM | 2000 nM | 2400 nM | 2500 nM | 2100 nM | 170 nM | 299 to 300 °C | 2400 nM | 2200 nM |  | 
COc1cc(C2C3=C(COC3=O)Nc3ccc4cc(C)[nH]c4c32)cc(OC)c1OC (centres unmarked) [Compound 4j, 2-methyl-10-(3,4,5-trimethoxyphenyl)-6,7,9,10-tetrahydro-1H-furo[3,4-b]pyrrolo[2,3-f]quinolin-9-one] |  |  |  |  |  |  |  |  |  |  | 2600 nM | 
COc1ccc(C2C3=C(COC3=O)Nc3ccc4cc(C)[nH]c4c32)cc1O (centres unmarked) [Compound 4k, 10-(3-hydroxy-4-methoxyphenyl)-2-methyl-6,7,9,10-tetrahydro-1H-furo[3,4-b]pyrrolo[2,3-f]quinolin-9-one] | 2700 nM | 2000 nM | 170 nM | 2000 nM | 160 nM | < 100 nM | 2100 nM | 293 to 294 °C | 170 nM | 170 nM |  | 190 nM
COc1cc(C2C3=C(COC3=O)Nc3ccc4ncsc4c32)ccc1O (centres unmarked) [Compound 4t, 10-(4-hydroxy-3-methoxyphenyl)-6,7,9,10-tetrahydrofuro[3,4-b][1,3]thiazolo[5,4-f]quinolin-9-one] | 2200 nM | < 100 nM | 140 nM | 150 nM | 120 nM | < 100 nM | 150 nM | 296 to 297 °C | 160 nM | < 100 nM |  | 150 nM
COc1cc(C2C3=C(COC3=O)Nc3ccc4cn[nH]c4c32)ccc1O (centres unmarked) [Compound 4o, 10-(4-hydroxy-3-methoxyphenyl)-6,7,9,10-tetrahydro-1H-furo[3,4-b]pyrazolo[3,4-f]quinolin-9-one] | 2000 nM |  |  | 2000 nM | 2800 nM |  |  | 238 to 240 °C | 2300 nM | 2100 nM |  | 
COc1cc(C2C3=C(COC3=O)Nc3onc(-c4ccc(Cl)cc4)c32)cc(OC)c1OC (centres unmarked) [Compound 4ac, 3-(4-chlorophenyl)-4-(3,4,5-trimethoxyphenyl)-4,5,7,8-tetrahydrofuro[3′,4′:5,6]pyrido[3,2-d]isoxazol-5-one] |  | 2000 nM | 180 nM | 2300 nM | 2500 nM | < 100 nM | 2400 nM | 248 to 249 °C | 2300 nM | 190 nM | 2300 nM | 2000 nM
COc1cc(C2C3=C(COC3=O)Nc3ccc4cc[nH]c4c32)ccc1F (centres unmarked) [Compound 4h, 10-(4-fluoro-3-methoxyphenyl)-6,7,9,10-tetrahydro-1H-furo[3,4-b]pyrrolo[2,3-f]quinolin-9-one] |  | 2600 nM | 2500 nM | 2100 nM | 2600 nM | 2200 nM | 170 nM | 170 to 172 °C |  | 2500 nM |  | 2300 nM
COc1cc(C2C3=C(COC3=O)Nc3ccc4nc(C)sc4c32)ccc1O (centres unmarked) [Compound 4v, 10-(4-hydroxy-3-methoxyphenyl)-2-methyl-6,7,9,10-tetrahydrofuro[3,4-b][1,3]thiazolo[5,4-f]quinolin-9-one] |  | < 100 nM | 180 nM | 160 nM | 170 nM | < 100 nM | 2000 nM | 293 to 295 °C | 160 nM | 170 nM | 180 nM | 120 nM
COc1ccc(C2C3=C(COC3=O)Nc3ccc4cc[nH]c4c32)cc1O (centres unmarked) [Compound 4g, 10-(3-hydroxy-4-methoxyphenyl)-6,7,9,10-tetrahydro-1H-furo[3,4-b]pyrrolo[2,3-f]quinolin-9-one] | 190 nM |  | 2300 nM | 2900 nM | 2200 nM | 2300 nM | 2200 nM | 297 to 299 °C |  | 2800 nM |  | 2700 nM
COc1ccc(-c2noc3c2C(c2ccc(OC)c(O)c2)C2=C(COC2=O)N3)cc1 (centres unmarked) [Compound 4ab, 4-(3-hydroxy-4-methoxyphenyl)-3-(4-methoxyphenyl)-4,5,7,8-tetrahydrofuro[3′,4′:5,6]pyrido[3,2-d]isoxazol-5-one] | 2700 nM | < 100 nM | 140 nM | 190 nM | 140 nM | < 100 nM | 170 nM | 219 to 221 °C | 160 nM | 140 nM |  | 160 nM
COc1ccc(C2C3=C(COC3=O)Nc3ccc4cn[nH]c4c32)cc1[N+](=O)[O-] (centres unmarked) [Compound 4r, 10-(4-methoxy-3-nitrophenyl)-6,7,9,10-tetrahydro-1H-furo[3,4-b]pyrazolo[3,4-f]quinolin-9-one] | 2200 nM | < 100 nM | 140 nM | 160 nM | 130 nM | < 100 nM | 120 nM | 217 to 218 °C | 160 nM | 140 nM |  | 130 nM
